The results in this text go back to patent US8598154B2 (Corcept Therapeutics, Inc., priority 2010, dated 2013).

The target in experiment [1] is T1, Human Recombinant Glucocorticoid Receptor (Homo sapiens, UniProt P04150).
T1 construct: This GR was a full-length steroid hormone receptor likely to be associated with heat-shock and other endogenous proteins; host or cells: baculovirus-infected insect cells
T1 sequence (P04150 1-777): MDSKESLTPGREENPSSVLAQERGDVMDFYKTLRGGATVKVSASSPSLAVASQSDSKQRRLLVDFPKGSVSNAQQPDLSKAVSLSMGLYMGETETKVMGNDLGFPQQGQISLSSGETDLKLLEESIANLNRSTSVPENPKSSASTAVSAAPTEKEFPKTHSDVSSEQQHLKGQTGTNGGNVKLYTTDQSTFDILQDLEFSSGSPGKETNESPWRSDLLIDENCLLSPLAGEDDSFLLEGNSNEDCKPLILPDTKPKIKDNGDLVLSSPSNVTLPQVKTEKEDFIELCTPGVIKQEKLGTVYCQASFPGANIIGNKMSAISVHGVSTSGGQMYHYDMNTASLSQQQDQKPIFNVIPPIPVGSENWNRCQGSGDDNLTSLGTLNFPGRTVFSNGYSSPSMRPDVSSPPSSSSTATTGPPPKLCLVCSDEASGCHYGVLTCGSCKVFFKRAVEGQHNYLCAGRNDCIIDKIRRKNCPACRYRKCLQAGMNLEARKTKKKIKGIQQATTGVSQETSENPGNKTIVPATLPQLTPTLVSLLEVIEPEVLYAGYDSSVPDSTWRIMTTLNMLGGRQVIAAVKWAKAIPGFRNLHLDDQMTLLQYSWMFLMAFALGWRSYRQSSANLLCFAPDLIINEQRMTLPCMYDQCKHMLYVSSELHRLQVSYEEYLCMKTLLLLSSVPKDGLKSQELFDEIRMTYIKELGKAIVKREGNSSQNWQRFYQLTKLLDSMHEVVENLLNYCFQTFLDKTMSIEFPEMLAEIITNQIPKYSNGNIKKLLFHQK
The experiment can be described thus: Glucocorticoid receptor binding displacement assay with 3H-dexamethasone. The settings on record: displacement of 2.5 nM 3H-dexamethasone; Ki from IC50 by Cheng-Prusoff; read-out: GR Binding Ki. The procedure: The source of the receptor was recombinant baculovirus-infected insect cells. This GR was a full-length steroid hormone receptor likely to be associated with heat-shock and other endogenous proteins.
For the Primary Screen, test compounds were tested at 1 μM in duplicate. These compounds were diluted from 10 mM stock in 100% DMSO. After dilution to 100 μM, 5 μl were added to 245 μl assay buffer to obtained 2 μM compound and 2% DMSO.
For the IC50 determinations, test compounds were tested at 6 concentrations in duplicate (concentration range depends on % inhibition binding that was obtained in the Primary Screen). Test compounds were diluted from 10 mM stock in 100% DMSO. The tested solutions were prepared at 2× final assay concentration in 2% DMSO/assay buffer.
All reagents and the assay plate were kept on ice during the addition of reagents. […] After the additions, the incubation mixture was mixed and incubated for 2.5 hrs at 4° C.
After 2.5 hrs incubation, unbound counts were removed with dextran coated charcoal (DCC) as follows: 25 μl of DCC solution (10% DCC in assay buffer) was added to all wells and mixed (total volume 225 μl). The plate was centrifuged at 4000 rpm for 10 minutes at 4° C. 75 μl of the supernatants (i.e.⅓ of total volume) was carefully pipetted into an optiplate. 200 μl of scintillation cocktail were added (Microscint-40, Packard Bioscience. B.V.). The plate was vigorously shaken for approx. 10 minutes and counted on Topcount.
The IC50 values were converted to Ki (the inhibition constant) using the Cheng-Prusoff equation. Test results are presented in Tablel.
Reagents: Assay buffer: 10 mM potassium phosphate buffer pH 7.6 containing 5 mM DTT, 10 mM sodium molybdate, 100 μM EDTA and 0.1% BSA.

Experiment [2] concerns the target T2, glucocorticoid receptors (GR) in SW1353/MMTV-5 cells (Homo sapiens, UniProt P04150).
T2 construct: contains endogenous glucocorticoid receptors; endogenous in cells; host or cells: SW1353/MMTV-5 (human chondrosarcoma, stably transfected with the pMAMneo-Luc reporter only)
T2 sequence (P04150 1-777): T1 sequence (P04150 1-777)
The experiment can be described thus: GR functional assay using SW1353/MMTV-5 cells (MMTV-luciferase reporter). In kind it is cell-based. The procedure:
SW1353/MMTV-5 is an adherent human chondrosarcoma cell line that contains endogenous glucocorticoid receptors. It was transfected with a plasmid (pMAMneo-Luc) encoding firefly luciferase located behind a glucocorticoid-responsive element (GRE) derived from a viral promoter (long terminal repeat of mouse mammary tumor virus). A stable cell line SW1353/MMTV-5 was selected with geneticin, which was required to maintain this plasmid.
SW1353/MMTV-5 cells were distributed in 96-well plates and incubated in medium (without geneticin) for 24 hrs (in the absence of CO2).
Background: In a reporter assay the amount or activity of a reporter protein is the signal.

SMILES strings stand for the structures. Bounds are passed on as bounds.

By Ki is commonly meant the equilibrium dissociation constant of an inhibitor or competing ligand from its target. Consider `CCOC[C@]12Cc3cnn(-c4ccc(F)cc4)c3C=C1CCN(S(=O)(=O)c1ccc(N3CCOCC3)nc1)C2` [Example 1, (R)-4a-Ethoxymethyl-1-(4-fluorophenyl)-6-[[6-(4-morpholinyl)-3-pyridinyl]sulfonyl]-1,4,7,8-tetrahydro-1,2,6-triazacyclopenta[b]naphthalene], for which the Ki in experiment [1] was less than 0.5 nM; in experiment [2], less than 10 nM.
With `COC(=O)[C@]12Cc3cnn(-c4ccc(F)cc4)c3C=C1CCN(S(=O)(=O)c1ccc(N3CCOCC3)nc1)C2` [Example 1c, (R)-1-(4-Fluorophenyl)-6-(6-morpholin-4-ylpyridine-3-sulfonyl)-1,4,5,6,7,8-hexahydro-1,2,6-triazacyclopenta[b]naphthalene-4a-carboxylic acid methyl ester], the Ki is greater than 1 nM in experiment [1] and greater than 50 nM in experiment [2].
In the same order, the values of `O=S(=O)(c1ccc(N2CCOCC2)nc1)N1CCC2=Cc3c(cnn3-c3ccc(F)cc3)C[C@]2(CO)C1` [Example 1d, [(R)-1-(4-Fluorophenyl)-6-[[6-(4-morpholinyl)-3-pyridinyl]sulfonyl]-1,4,7,8-tetrahydro-1,2,6-triazacyclopenta[b]naphthalen-4a-yl]methanol] are greater than 1 nM and greater than 50 nM.
For the molecule `CCOC[C@]12Cc3cnn(-c4ccc(F)cc4)c3C=C1CCN(S(=O)(=O)c1cccnc1)C2` [Example 2, (R)-4a-Ethoxymethyl-1-(4-fluorophenyl)-6-[[3-pyridinyl]sulfonyl]-1,4,7,8-tetrahydro-1,2,6-triazacyclopenta[b]naphthalene], the Ki was in the range of 0.5 to 1 nM in experiment [1] and 10 to 50 nM in experiment [2].
For `CCOC[C@]12Cc3cnn(-c4ccc(F)cc4)c3C=C1CCN(S(=O)(=O)c1cnc3c(c1)OCCN3C)C2` [Example 3] the same measures were less than 0.5 nM and 10 to 50 nM.
As for `CCOC[C@]12Cc3cnn(-c4ccc(F)cc4)c3C=C1CCN(S(=O)(=O)c1ccc(N3CCCC3)nc1)C2` [Example 4, (R)-4a-Ethoxymethyl-1-(4-fluorophenyl)-6-[[6-(1-pyrrolidinyl)-3-pyridinyl]sulfonyl]-1,4,7,8-tetrahydro-1,2,6-triazacyclopenta[b]naphthalene], the inhibition constant (Ki) in experiment [1] was greater than 1 nM; in experiment [2] it was 10 to 50 nM.
As for `COC[C@]12Cc3cnn(-c4ccc(F)cc4)c3C=C1CCN(S(=O)(=O)c1ccc(N3CCCC3)nc1)C2` [Example 5, (R)-1-(4-Fluorophenyl)-4a-methoxymethyl-6-[[6-(1-pyrrolidinyl)-3-pyridinyl]sulfonyl]-1,4,7,8-tetrahydro-1,2,6-triazacyclopenta[b]naphthalene], the Ki in experiment [1] lay within 0.5 to 1 nM; in experiment [2] it was 10 to 50 nM.
In the same order, the values of `CCOC[C@]12Cc3cnn(-c4ccc(F)cc4)c3C=C1CCN(S(=O)(=O)c1ccc(N3CCC3)nc1)C2` [Example 6, (R)-6-[[6-(1-Azetidinyl)-3-pyridinyl]sulfonyl]-4a-ethoxymethyl-1-(4-fluorophenyl)-1,4,7,8-tetrahydro-1,2,6-triazacyclopenta[b]naphthalene] are 0.5 to 1 nM and 10 to 50 nM.
As for `CCOC[C@]12Cc3cnn(-c4ccc(F)cc4)c3C=C1CCN(S(=O)(=O)c1ccc(NC)nc1)C2` [Example 7, (R)-4a-Ethoxymethyl-1-(4-fluorophenyl)-6-[[6-methylamino-3-pyridinyl]sulfonyl]-1,4,7,8-tetrahydro-1,2,6-triazacyclopenta[b]naphthalene], the Ki is less than 0.5 nM in experiment [1] and 10 to 50 nM in experiment [2].
Take `CCOC[C@]12Cc3cnn(-c4ccc(F)cc4)c3C=C1CCN(S(=O)(=O)c1ccc(N(C)C)nc1)C2` [Example 8, (R)-6-[[6-Dimethylamino-3-pyridinyl]sulfonyl]-4a-ethoxymethyl-1-(4-fluorophenyl)-1,4,7,8-tetrahydro-1,2,6-triazacyclopenta[b]naphthalene]: the Ki in experiment [1] is less than 0.5 nM; in experiment [2] it was less than 10 nM.
As for `CNc1ccc(S(=O)(=O)N2CCC3=Cc4c(cnn4-c4ccc(F)cc4)C[C@]3(COC)C2)cn1` [Example 9, (R)-1-(4-Fluorophenyl)-4a-methoxymethyl-6-[[6-methylamino-3-pyridinyl]sulfonyl]-1,4,7,8-tetrahydro-1,2,6-triazacyclopenta[b]naphthalene], the Ki in experiment [1] is greater than 1 nM; in experiment [2] it was greater than 50 nM.
For `COC[C@]12Cc3cnn(-c4ccc(F)cc4)c3C=C1CCN(S(=O)(=O)c1ccc(N(C)C)nc1)C2` [Example 10, (R)-6-[[6-Dimethylamino-3-pyridinyl]sulfonyl]-1-(4-fluorophenyl)-4a-methoxymethyl-1,4,7,8-tetrahydro-1,2,6-triazacyclopenta[b]naphthalene], the Ki in experiment [1] is 0.5 to 1 nM; in experiment [2], 10 to 50 nM.
For `COC[C@]12Cc3cnn(-c4ccc(F)cc4)c3C=C1CCN(S(=O)(=O)c1ccc(N3CCC3)nc1)C2` [Example 11, (R)-6-[[6-(1-Azetidinyl)-3-pyridinyl]sulfonyl]-1-(4-fluorophenyl)-4a-methoxymethyl-1,4,7,8-tetrahydro-1,2,6-triazacyclopenta[b]naphthalene] the same measures were 0.5 to 1 nM and 10 to 50 nM.
In the same order, the values of `COC[C@]12Cc3cnn(-c4ccc(F)cc4)c3C=C1CCN(S(=O)(=O)c1cncc(N3CCOCC3)c1)C2` [Example 12, (R)-1-(4-Fluorophenyl)-4a-methoxymethyl-6-(5-morpholin-4-ylpyridine-3-sulfonyl)-4,4a,5,6,7,8-hexahydro-1H-1,2,6-triazacyclopenta[b]naphthalene] are greater than 1 nM and greater than 50 nM.
On to `COC[C@]12Cc3cnn(-c4ccc(F)cc4)c3C=C1CCN(S(=O)(=O)c1cncc(N3CCC3)c1)C2` [Example 13, (R)-6-(5-Azetidin-1-ylpyridine-3-sulfonyl)-1-(4-fluorophenyl)-4a-methoxymethyl-4,4a,5,6,7,8-hexahydro-1H-1,2,6-triazacyclopenta[b]naphthalene], for which the Ki in experiment [1] is less than 0.5 nM; in experiment [2], 10 to 50 nM.
`COC[C@]12Cc3cnn(-c4ccc(F)cc4)c3C=C1CCN(S(=O)(=O)c1ccc(N3CCOCC3)nc1)C2` [Example 14, (R)-1-(4-Fluorophenyl)-4a-methoxymethyl-6-(6-morpholin-4-yl-pyridine-3-sulfonyl)-4,4a,5,6,7,8-hexahydro-1H-1,2,6-triazacyclopenta[b]naphthalene]: the Ki in experiment [1] lay in the range of 0.5 to 1 nM; in experiment [2], 10 to 50 nM.
In the same order, the values of `O=S(=O)(c1ccc(N2CCOCC2)nc1)N1CCC2=Cc3c(cnn3-c3ccc(F)cc3)C[C@]2(COC(F)F)C1` [Example 15, (R)-4a-Difluoromethoxymethyl-1-(4-fluorophenyl)-6-(6-morpholin-4-yl-pyridine-3-sulfonyl)-4,4a,5,6,7,8-hexahydro-1H-1,2,6-triazacyclopenta[b]naphthalene] are greater than 1 nM and 10 to 50 nM.
As to `O=S(=O)(c1ccc(N2CC[C@@H](O)C2)nc1)N1CCC2=Cc3c(cnn3-c3ccc(F)cc3)C[C@]2(CN2CC[C@H](O)C2)C1` [Example 46, (S)-1-{(S)-1-(4-Fluorophenyl)-6-[6-((R)-3-hydroxy-pyrrolidin-3-ol)-pyridine-3-sulfonyl]-1,4,5,6,7,8-hexahydro-1,2,6-triaza-cyclopenta[b]naphthalene-4a-ylmethyl}-pyrrolidin-3-ol], the Ki in experiment [1] was greater than 1 nM.
